IC50 data for eleven molecules are collected here from patent US12202835B2, “Substituted aromatic ring-linked dioxinoquinazolines and dioxinoquinolines as kinase inhibitors” (BEIJING SCITECH-MQ PHARMACEUTICALS LIMITED, priority 2018, dated 2025).

Each structure is given as a SMILES string. Where only a bound is given, the exact number is not on record here.

For one test, the target named is TRKA kinase (Homo sapiens (Human), UniProt P04629). In words: Assay of small molecular compounds for inhibiting the activity of TRKA kinase (LANCE TR-FRET). Type of test: biochemical. The essentials:
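LANCE TR-FRET with ULight-TK peptide; compounds pre-incubated 5 min with TRKA (2× solution 2 nM), then substrate/ATP added (4× mix: 400 nM peptide, 40 μM ATP). Reaction 60 min at room temperature in dark, 1% DMSO final; stopped, detection developed 60 min, signal read.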

Test [1] has as its system Ba/F3 LMNA-NTRK1-G595R cells. The test can be described thus: Assay for inhibiting the proliferation of Ba/F3 LMNA-NTRK1-G595R cells (CCK-8). It is filed as cell-based. Particulars: Mus musculus, BaF3. The essentials: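 Cells seeded in 96-well plates overnight, then exposed 72 h to 9 three-fold dilutions of compound (0.25% DMSO final). Viability by CCK-8 (1-2 h at 37° C., OD 450 nm), survival normalized to untreated and cell-free blanks; IC50 by curve fitting.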

TRKA kinase, sequence (P04629 33-796): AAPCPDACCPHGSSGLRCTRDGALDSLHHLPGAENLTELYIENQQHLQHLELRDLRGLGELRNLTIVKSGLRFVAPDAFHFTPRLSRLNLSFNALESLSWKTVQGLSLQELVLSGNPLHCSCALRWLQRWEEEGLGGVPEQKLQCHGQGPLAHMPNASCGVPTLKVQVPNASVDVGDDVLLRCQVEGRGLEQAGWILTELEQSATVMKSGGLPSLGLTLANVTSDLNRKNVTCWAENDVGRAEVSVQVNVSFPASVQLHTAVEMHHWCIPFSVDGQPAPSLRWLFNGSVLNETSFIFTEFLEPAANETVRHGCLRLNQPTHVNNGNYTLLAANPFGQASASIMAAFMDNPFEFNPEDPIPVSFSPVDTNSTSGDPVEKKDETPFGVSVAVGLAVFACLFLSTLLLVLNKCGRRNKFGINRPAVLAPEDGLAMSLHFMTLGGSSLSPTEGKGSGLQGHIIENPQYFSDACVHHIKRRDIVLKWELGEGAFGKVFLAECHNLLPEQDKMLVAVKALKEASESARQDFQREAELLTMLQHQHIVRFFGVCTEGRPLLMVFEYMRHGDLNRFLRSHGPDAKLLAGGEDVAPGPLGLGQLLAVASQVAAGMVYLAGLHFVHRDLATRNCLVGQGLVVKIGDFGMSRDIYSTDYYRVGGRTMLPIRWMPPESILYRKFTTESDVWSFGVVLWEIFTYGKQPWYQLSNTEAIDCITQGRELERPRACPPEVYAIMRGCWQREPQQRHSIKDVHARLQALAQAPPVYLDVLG

Regarding `COCCOc1cc2nccc(Oc3ccc(NC(=O)c4cn(C(C)C)c(=O)n(-c5ccc(F)cc5)c4=O)cc3F)c2c2c1OCCO2` [Example 43, N-(3-fluoro-4-((5-(2-methoxyethoxy)-2,3-dihydro-[1,4]dioxino[2,3-f]quinolin-10-yl)oxy)phenyl)-3-(4-fluorophenyl)-1-isopropyl-2,4-dioxo-1,2,3,4-tetrahydropyrimidine-5-carboxamide], the values for the half-inhibitory concentration (IC50) (against TRKA kinase; in test [1]) were 50 to 500 nM and 50 to 200 nM, respectively.

Regarding `CCn1cc(C(=O)Nc2ccc(Oc3ccnc4cc(OCCOC)c5c(c34)OCCO5)c(F)c2)c(=O)n(-c2ccc(F)cc2)c1=O` [Example 44, N-(3-fluoro-4-((5-(2-methoxyethoxy)-2,3-dihydro-[1,4]dioxino[2,3-f]quinolin-10-yl)oxy)phenyl)-3-(4-fluorophenyl)-1-ethyl-2,4-dioxo-1,2,3,4-tetrahydropyrimidine-5-carboxamide], the IC50 at TRKA kinase was under 50 nM; in test [1] it was at most 50 nM.

For the molecule `COCCn1cc(C(=O)Nc2ccc(Oc3ccnc4cc(OC)c5c(c34)OCCO5)c(F)c2)c(=O)n(-c2ccc(F)cc2)c1=O` [Example 46, N-(3-fluoro-4-((5-methoxy-2,3-dihydro-[1,4]dioxino[2,3-f]quinolin-10-yl)oxy)phenyl)-3-(4-fluorophenyl)-1-(2-methoxyethyl)-2,4-dioxo-1,2,3,4-tetrahydropyrimidine-5-carboxamide], the concentration for half-maximal inhibition (IC50) against TRKA kinase lay in the range of 50 to 500 nM; in test [1], 50 to 200 nM.

With `CN1CCN(CCCOc2cc3nccc(Oc4ccc(NC(=O)c5cn(C)c(=O)n(-c6ccc(F)cc6)c5=O)cc4F)c3c3c2OCCO3)CC1` [Example 74, N-(3-fluoro-4-((5-(3-(4-methylpiperazin-1-yl)propoxy)-2,3-dihydro-[1,4]dioxino[2,3-f]quinolin-10-yl)oxy)phenyl)-3-(4-fluorophenyl)-1-methyl-2,4-dioxo-1,2,3,4-tetrahydropyrimidine-5-carboxamide], the IC50 against TRKA kinase was under 50 nM; in test [1], 200 to 1000 nM.

In the case of `CC(=O)N1CCN(CCCOc2cc3nccc(Oc4ccc(NC(=O)c5cn(C(C)C)c(=O)n(-c6ccc(F)cc6)c5=O)cc4F)c3c3c2OCCO3)CC1` [Example 75, N-(3-fluoro-4-((5-(3-(4-acetylpiperazin-1-yl)propoxy)-2,3-dihydro-[1,4]dioxino[2,3-f]quinolin-10-yl)oxy)phenyl)-3-(4-fluorophenyl)-1-isopropyl-2,4-dioxo-1,2,3,4-tetrahydropyrimidine-5-carboxamide], the values for the concentration for half-maximal inhibition (IC50) (at TRKA kinase; in test [1]) were under 50 nM and 200 to 1000 nM, respectively.

Take `CC(C)n1cc(C(=O)Nc2ccc(Oc3ccnc4cc(OCCCN5CCCC5)c5c(c34)OCCO5)c(F)c2)c(=O)n(-c2ccc(F)cc2)c1=O` [Example 77, N-(3-fluoro-4-((5-(3-(pyrrolidin-1-yl)propoxy)-2,3-dihydro-[1,4]dioxino[2,3-f]quinolin-10-yl)oxy)phenyl)-3-(4-fluorophenyl)-1-isopropyl-2,4-dioxo-1,2,3,4-tetrahydropyrimidine-5-carboxamide]: the half-maximal inhibitory concentration (IC50) at TRKA kinase is under 50 nM; in test [1] it was 200 to 1000 nM.

With `CC(C)n1cc(C(=O)Nc2ccc(Oc3ccnc4cc(OCCO)c5c(c34)OCCO5)c(F)c2)c(=O)n(-c2ccc(F)cc2)c1=O` [Example 78, N-(3-fluoro-4-((5-(2-hydroxyethoxy)-2,3-dihydro-[1,4]dioxino[2,3-f]quinolin-10-yl)oxy)phenyl)-3-(4-fluorophenyl)-1-isopropyl-2,4-dioxo-1,2,3,4-tetrahydropyrimidine-5-carboxamide], the results for the half-inhibitory concentration (IC50) (at TRKA kinase; in test [1]) were under 50 nM and 50 to 200 nM, respectively.

With `CC(C)n1cc(C(=O)Nc2ccc(Oc3ccnc4cc(OCCCO)c5c(c34)OCCO5)c(F)c2)c(=O)n(-c2ccc(F)cc2)c1=O` [Example 79, N-(3-fluoro-4-((5-(3-hydroxypropoxy)-2,3-dihydro-[1,4]dioxino[2,3-f]quinolin-10-yl)oxy)phenyl)-3-(4-fluorophenyl)-1-isopropyl-2,4-dioxo-1,2,3,4-tetrahydropyrimidine-5-carboxamide], the IC50 against TRKA kinase was under 50 nM; in test [1], 50 to 200 nM.

As to `Cn1cc(C(=O)Nc2ccc(Oc3ccnc4cc(OC5CCOC5)c5c(c34)OCCO5)c(F)c2)c(=O)n(-c2ccc(F)cc2)c1=O` (centres unmarked) [Example 90, N-(3-fluoro-4-((5-((tetrahydrofuran-3-yl)oxy)-2,3-dihydro-[1,4]dioxino[2,3-f]quinolin-10-yl)oxy)phenyl)-3-(4-fluorophenyl)-1-methyl-2,4-dioxo-1,2,3,4-tetrahydropyrimidine-5-carboxamide], the IC50 on TRKA kinase was under 50 nM; in test [1], 50 to 200 nM.

As to `CC(C)n1cc(C(=O)Nc2ccc(Oc3ccnc4cc(OCCCN5CCC(C)(C)CC5)c5c(c34)OCCO5)c(F)c2)c(=O)n(-c2ccc(F)cc2)c1=O` [Example 92, N-(3-fluoro-4-((5-(3-(4,4-dimethylpiperidin-1-yl)propoxy)-2,3-dihydro-[1,4]dioxino[2,3-f]quinolin-10-yl)oxy)phenyl)-3-(4-fluorophenyl)-1-isopropyl-2,4-dioxo-1,2,3,4-tetrahydropyrimidine-5-carboxamide], on TRKA kinase, the half-maximal inhibitory concentration (IC50) is under 50 nM.

At TRKA kinase, `CC(C)n1cc(C(=O)Nc2ccc(Oc3ccnc4cc(OCCCN5CCC(C)(N)CC5)c5c(c34)OCCO5)c(F)c2)c(=O)n(-c2ccc(F)cc2)c1=O` [Example 93, N-(3-fluoro-4-((5-(3-(4-amino-4-methylpiperidin-1-yl)propoxy)-2,3-dihydro-[1,4]dioxino[2,3-f]quinolin-10-yl)oxy)phenyl)-3-(4-fluorophenyl)-1-isopropyl-2,4-dioxo-1,2,3,4-tetrahydropyrimidine-5-carboxamide] came in with an IC50 of under 50 nM.
